Laboratory results taken from publication PMC10539439 (Pharmacological Reports, 2023).
“And” between values parts separate entries of the source, which are not always exact repeats. Identical values can stand only once.

Assay: Blood pressure of anaesthetized normotensive rats
Assay type: in vivo, rat
Description: Eighteen normotensive rats were anaesthetized with thiopental (70 mg/kg) by ip injection. The left carotid artery was cannulated with tubing filled with heparin solution in saline to facilitate pressure measurements using Apparatus PowerLab 4/35 (ADInstruments, Australia). Blood pressure was measured: before ip administration of 4-OH-Guanabenz at the doses of 2 or 5 or 10 mg/kg b.w. or water – time 0 min (control pressure) and continuously during the next 60 min.

[1] = 2 mg/kg, time 0, individual rats 1-6
[2] = 2 mg/kg, time 5, individual rats 1-6
[3] = 2 mg/kg, time 10, individual rats 1-6
[4] = 2 mg/kg, time 15, individual rats 1-6
[5] = 2 mg/kg, time 20, individual rats 1-6
[6] = 2 mg/kg, time 30, individual rats 1-6
[7] = 2 mg/kg, time 40, individual rats 1-6
[8] = 2 mg/kg, time 50, individual rats 1-6
[9] = 2 mg/kg, time 60, individual rats 1-6
[10] = 5 mg/kg, time 0, individual rats 1-6
[11] = 5 mg/kg, time 5, individual rats 1-6
[12] = 5 mg/kg, time 10, individual rats 1-6
[13] = 5 mg/kg, time 15, individual rats 1-6
[14] = 5 mg/kg, time 20, individual rats 1-6
[15] = 5 mg/kg, time 30, individual rats 1-6
[16] = 5 mg/kg, time 40, individual rats 1-6
[17] = 5 mg/kg, time 50, individual rats 1-6
[18] = 5 mg/kg, time 60, individual rats 1-6
[19] = 10 mg/kg, time not printed (1st of 9 lines), individual rats 1-6
[20] = 10 mg/kg, time not printed (2nd of 9 lines), individual rats 1-6
[21] = 10 mg/kg, time not printed (3rd of 9 lines), individual rats 1-6
[22] = 10 mg/kg, time not printed (4th of 9 lines), individual rats 1-6
[23] = 10 mg/kg, time not printed (5th of 9 lines), individual rats 1-6
[24] = 10 mg/kg, time not printed (6th of 9 lines), individual rats 1-6
[25] = 10 mg/kg, time not printed (7th of 9 lines), individual rats 1-6
[26] = 10 mg/kg, time not printed (8th of 9 lines), individual rats 1-6
[27] = 10 mg/kg, time not printed (9th of 9 lines), individual rats 1-6

Structure (SMILES): N=C(N)N/N=C/c1c(Cl)cc(O)cc1Cl [4HOGuanabenz]
- diastolic pressure [1]: 104 mmHg and 92 mmHg and 99 mmHg and 108 mmHg and 82 mmHg and 91 mmHg
- systolic pressure [1]: 135 mmHg and 127 mmHg and 134 mmHg and 140 mmHg and 114 mmHg and 116 mmHg
- diastolic pressure [2]: 110 mmHg and 93 mmHg (2×) and 102 mmHg and 104 mmHg and 89 mmHg
- systolic pressure [2]: 140 mmHg and 125 mmHg and 136 mmHg and 137 mmHg and 119 mmHg and 116 mmHg
- diastolic pressure [3]: 105 mmHg and 88 mmHg (2×) and 96 mmHg and 99 mmHg and 92 mmHg
- systolic pressure [3]: 134 mmHg and 120 mmHg and 130 mmHg (2×) and 119 mmHg and 116 mmHg
- diastolic pressure [4]: 103 mmHg and 86 mmHg (2×) and 94 mmHg and 99 mmHg and 89 mmHg
- systolic pressure [4]: 133 mmHg and 117 mmHg and 128 mmHg and 129 mmHg and 115 mmHg and 114 mmHg
- diastolic pressure [5]: 99 mmHg and 84 mmHg and 92 mmHg and 96 mmHg and 86 mmHg and 85 mmHg
- systolic pressure [5]: 128 mmHg and 115 mmHg and 124 mmHg and 125 mmHg and 112 mmHg and 111 mmHg
- diastolic pressure [6]: 96 mmHg and 85 mmHg and 91 mmHg and 94 mmHg and 82 mmHg and 86 mmHg
- systolic pressure [6]: 125 mmHg and 111 mmHg and 120 mmHg and 121 mmHg and 106 mmHg and 107 mmHg
- diastolic pressure [7]: 101 mmHg and 86 mmHg and 90 mmHg and 93 mmHg and 79 mmHg and 85 mmHg
- systolic pressure [7]: 131 mmHg and 116 mmHg and 119 mmHg (2×) and 104 mmHg and 105 mmHg
- diastolic pressure [8]: 99 mmHg and 83 mmHg and 90 mmHg and 95 mmHg and 76 mmHg and 85 mmHg
- systolic pressure [8]: 129 mmHg and 110 mmHg and 116 mmHg and 124 mmHg and 101 mmHg and 104 mmHg
- diastolic pressure [9]: 96 mmHg (2×) and 83 mmHg and 90 mmHg and 73 mmHg and 85 mmHg
- systolic pressure [9]: 125 mmHg and 111 mmHg and 118 mmHg and 122 mmHg and 98 mmHg and 103 mmHg
- diastolic pressure [10]: 73 mmHg and 104 mmHg and 91 mmHg and 101 mmHg and 95 mmHg and 99 mmHg
- systolic pressure [10]: 115 mmHg and 133 mmHg and 114 mmHg and 135 mmHg and 122 mmHg and 131 mmHg
- diastolic pressure [11]: 71 mmHg and 106 mmHg and 112 mmHg and 113 mmHg and 100 mmHg and 108 mmHg
- systolic pressure [11]: 105 mmHg and 136 mmHg and 150 mmHg and 144 mmHg and 133 mmHg and 145 mmHg
- diastolic pressure [12]: 63 mmHg and 92 mmHg and 98 mmHg (2×) and 101 mmHg and 90 mmHg
- systolic pressure [12]: 97 mmHg and 121 mmHg and 129 mmHg and 132 mmHg and 120 mmHg and 130 mmHg
- diastolic pressure [13]: 62 mmHg and 89 mmHg and 87 mmHg and 95 mmHg and 83 mmHg and 91 mmHg
- systolic pressure [13]: 94 mmHg and 117 mmHg and 115 mmHg and 125 mmHg and 110 mmHg and 121 mmHg
- diastolic pressure [14]: 61 mmHg and 89 mmHg and 85 mmHg and 95 mmHg and 79 mmHg and 91 mmHg
- systolic pressure [14]: 93 mmHg and 115 mmHg and 109 mmHg and 124 mmHg and 105 mmHg and 117 mmHg
- diastolic pressure [15]: 63 mmHg and 90 mmHg and 86 mmHg and 93 mmHg (2×) and 77 mmHg
- systolic pressure [15]: 92 mmHg and 117 mmHg and 108 mmHg and 122 mmHg and 103 mmHg and 121 mmHg
- diastolic pressure [16]: 64 mmHg and 87 mmHg and 89 mmHg and 98 mmHg and 78 mmHg and 94 mmHg
- systolic pressure [16]: 92 mmHg and 111 mmHg and 109 mmHg and 127 mmHg and 107 mmHg and 119 mmHg
- diastolic pressure [17]: 65 mmHg and 87 mmHg and 89 mmHg and 91 mmHg and 78 mmHg and 96 mmHg
- systolic pressure [17]: 91 mmHg and 112 mmHg and 110 mmHg and 115 mmHg and 102 mmHg and 124 mmHg
- diastolic pressure [18]: 67 mmHg and 88 mmHg and 84 mmHg and 91 mmHg and 83 mmHg and 93 mmHg
- systolic pressure [18]: 92 mmHg and 112 mmHg and 104 mmHg and 113 mmHg and 111 mmHg and 118 mmHg
- diastolic pressure [19]: 75 mmHg and 81 mmHg and 116 mmHg and 86 mmHg and 114 mmHg and 107 mmHg
- systolic pressure [19]: 113 mmHg and 125 mmHg and 158 mmHg and 100 mmHg and 145 mmHg and 140 mmHg
- diastolic pressure [20]: 95 mmHg and 98 mmHg and 122 mmHg and 99 mmHg and 117 mmHg and 109 mmHg
- systolic pressure [20]: 125 mmHg and 126 mmHg and 177 mmHg and 111 mmHg and 164 mmHg and 139 mmHg
- diastolic pressure [21]: 89 mmHg and 95 mmHg and 109 mmHg and 87 mmHg and 111 mmHg and 107 mmHg
- systolic pressure [21]: 115 mmHg and 124 mmHg and 150 mmHg and 101 mmHg and 151 mmHg and 134 mmHg
- diastolic pressure [22]: 86 mmHg and 95 mmHg and 106 mmHg and 84 mmHg and 107 mmHg and 103 mmHg
- systolic pressure [22]: 112 mmHg and 127 mmHg and 135 mmHg and 96 mmHg and 142 mmHg and 131 mmHg
- diastolic pressure [23]: 84 mmHg (2×) and 92 mmHg and 108 mmHg and 103 mmHg (2×)
- systolic pressure [23]: 110 mmHg and 121 mmHg and 133 mmHg and 95 mmHg and 135 mmHg and 129 mmHg
- diastolic pressure [24]: 83 mmHg and 91 mmHg and 105 mmHg and 81 mmHg and 101 mmHg (2×)
- systolic pressure [24]: 108 mmHg and 123 mmHg and 135 mmHg and 91 mmHg and 132 mmHg and 127 mmHg
- diastolic pressure [25]: 82 mmHg and 88 mmHg and 96 mmHg and 80 mmHg and 99 mmHg and 101 mmHg
- systolic pressure [25]: 107 mmHg and 116 mmHg and 126 mmHg and 90 mmHg and 130 mmHg and 124 mmHg
- diastolic pressure [26]: 84 mmHg and 90 mmHg and 106 mmHg and 78 mmHg and 98 mmHg and 97 mmHg
- systolic pressure [26]: 107 mmHg and 121 mmHg and 134 mmHg and 87 mmHg and 129 mmHg and 122 mmHg
- diastolic pressure [27]: 83 mmHg and 92 mmHg and 99 mmHg and 78 mmHg and 101 mmHg and 98 mmHg
- systolic pressure [27]: 107 mmHg and 122 mmHg (2×) and 130 mmHg and 86 mmHg and 131 mmHg
